Laboratory results from patent US20030073218A1, “High affinity inhibitors for target validation and uses thereof” (Princeton University, priority 1999, published 2003).

Experiments:
[1] = target: T1, I338G v-Src (Rous sarcoma virus subgroup A, UniProt P00524, DEL77-225/I338G); test: biochemical; assay type: biochemical; conditions: Table 3; read-out: IC50, 1338G v-Src
T1 construct: screened against the catalytic domain of the target kinase, I338G v-Src; made in house; host or cells: E. coli DH5a, pGEX-KT

[2] = target: T2, WT v-Src (Rous sarcoma virus subgroup A, UniProt P00524, DEL77-225); test: biochemical; assay type: biochemical; conditions: Table 3, wild type; read-out: IC50, vSrc
T2 construct: mutant of the v-Src catalytic domain, (the XD4 fragment) were made as glutathione S-transferase (GST) fusion proteins; made in house; host or cells: E. coli (DH5a), pGEX-KT

[3] = system: panel of wild-type protein kinases (v-src, Fyn, c-Abl, CAMK IIα, CDK2); test: In vitro inhibition, panel of wild-type protein kinases; assay type: biochemical; conditions: none inhibited below this concentration
[4] = system: I338G v-Src, T339G Fyn, T315A Abl, F89G CAMK IIα and F80G CDK2; test: In vitro inhibition, panel of engineered protein kinases; assay type: biochemical
[5] = target: T3, Cdc28-as1 (F88G Cdc28) (Saccharomyces cerevisiae, UniProt P00546, F88G); test: In vitro sensitivity of Cdc28 kinases to PP1 derivatives (Example 19); assay type: biochemical; conditions: read-out: IC50, engineered Cdc28
T3 construct: made in house

[6] = system: cdc28-as1 strain; test: Yeast growth; assay type: cell-based, Saccharomyces cerevisiae
Protocol: (§1) Yeast Plasmid and Strain Construction: Media and genetic and microbial techniques were essentially as described (148, 153). All strains were derivatives of W30-3 (ura3-a, leu2-3, 112, trpl-1, his3-11,15, ade2-1, can1-100, GAL+). All strains were grown at 23° C. unless otherwise noted. To create cdc28-as1, the CDC28 coding sequence and 400 bp of 5′-and 386 bp of 3′-flanking DNA was PCR-amplified from genomic DNA and ligated into pRS306 to make pJAU1. The F88G mutation was engineered by oligonucleotide-directed mutagenesis of pJAU1. The plasmid was integrated into the wild-type CDC28 locus following AflII digestion by a pop-in-pop-out strategy as described (148, 153).
as §1, with “To examine the function of Cdc28 in vivo, a yeast strain in which the wild-type copy of CDC28 was replaced by cdc28-as1 was constructed.” for “Yeast Plasmid and Strain Construction:”, “W303 (ura3-1,” for “W30-3 (ura3-a,”, “cdc28-as1 ,” for “cdc28-as1,”, “5′- and” for “5′-and”, “AfII” for “AflII”

[7] = system: wild-type strain (CDC28); test: Yeast growth; assay type: cell-based, Saccharomyces cerevisiae
Protocol: as §1
as §1, with “To examine the function of Cdc28 in vivo, a yeast strain in which the wild-type copy of CDC28 was replaced by cdc28-as1 was constructed.” for “Yeast Plasmid and Strain Construction:”, “W303 (ura3-1,” for “W30-3 (ura3-a,”, “cdc28-as1 ,” for “cdc28-as1,”, “5′- and” for “5′-and”, “AfII” for “AflII”

[8] = system: Fus3-as1 expressing yeast; test: Yeast mating assay for Fus3 function; assay type: cell-based, Saccharomyces cerevisiae; conditions: 50 μM
[9] = system: wild-type Fus3 expressing yeast; test: Yeast mating assay for Fus3 function; assay type: cell-based, Saccharomyces cerevisiae; conditions: all concentrations up to 50 μM
[10] = system: S. cerevisiae expressing wild-type Fus3, Fus3-as1, or no Fus3; test: Non-selective cytotoxicity control, mating cultures plated on YPD; assay type: cell-based, Saccharomyces cerevisiae; conditions: any of the three strains
[11] = target: T4, Cdc28-as1 · MBP-Clb2 (Saccharomyces cerevisiae, UniProt P00546, F88G); test: 1-NM-PP1 IC50, Histone H1 kinase assay; assay type: biochemical; conditions: 1 MM ATP
T4 construct: made in house; host or cells: Sf9 insect cells, baculovirus, co-infected with Cak1-HA3 (Cdc28-as1-His6); bacteria (MBP-Clb2)
Protocol: Phosphate incorporation was determined at each inhibitor concentration by scintillation counting.
Cdc28-as1 is highly sensitive to 1-NM-PP1 in vitro and is a slightly weakened kinase.

[12] = system: cdc28-as1 cells; test: DNA content (flow cytometry) and morphology of yeast cells; assay type: cell-based, Saccharomyces cerevisiae; conditions: for cell cycle effect (G2/M DNA content, large hyperpolarized buds): asynchronous cells
Protocol: DNA flow cytometry: Approximately 1×10^7 cells for each sample were fixed in 70% ethanol, resuspended in 50 mM Tris-HCl pH 8.0, briefly sonicated, digested with 2mg/ml RNase for 2 hours at 37° C., and resuspended in 0.2 ml protease solution (5 mg/ml pepsin. 0.5% concentrated HCl ) and digested for 45 minutes at 37° C. DNA was stained with 1μM Sytox Green (Molecular Probes) in 50 mM Tris-HCl pH 7.5 and 20,000 cells from each sample were scanned with a FACScan FACS machine (Becton-Dickinson).
Thus, it appears possible to titrate the level of Cdc28-as1 activity in vivo, allowing the identification of cell cycle events that are differentially sensitive to decreases in the catalytic activity of Cdc28.
When cdc28-as1 cells were synchronized in G1 with the yeast mating pheromone, α-factor factor, and then released into fresh media containing 500 nM 1-NM-PP 1, initiation of budding and DNA synthesis were delayed about 30 to 60 minutes, while accumulation of the mitotic cyclin Clb2 was delayed 60 to 90 minutes. […] Thus, cells treated with low concentrations of the inhibitor are slightly delayed during progression through early stages of the cell cycle, but eventually arrest due to a failure to assemble a mitotic spindle and enter mitosis.
These cells eventually budded after 180 to 240 minutes and arrested with a IC DNA content, large hyperpolarized buds, a single DNA mass in the mother cell, and an interphase astral microtubule array.

[13] = system: cdc28-as1 strain lacking PCL1 and PCL2; test: Budding and DNA content after release from G1; assay type: cell-based, Saccharomyces cerevisiae; conditions: G1 synchronized, released into 5,000 nM
Protocol: Pho85, a Cdk that is closely related to Cdc28, has been implicated in the initiation of budding in S. cerevisiae (128, 129). Therefore, the budding observed in cdc28-as1 cells released into 5,000 nM 1-NM-PP1 due to residual Cdc28-as1 activity or due to Pho85 activity was investigated. A cdc28-as1 strain lacking PCL1 and PCL2, which encode the two G1 activating cyclins of Pho85 were constructed. […] It was concluded that Pc11- and Pc12-associated Pho85 activity, and not residual Cdc28 activity, are responsible for the greatly delayed budding observed in cdc28-as1 cells treated with high concentrations of inhibitor.

[14] = system: cdc28-as1 cells; test: Genome-wide transcription, oligonucleotide DNA arrays; assay type: cell-based, Saccharomyces cerevisiae
Description: (§2) Error bars represent standard errors of the means.
(§3) Changes were deemed significant if they were greater than or equal to 2-fold or if the transcript changed present/absent status (as indicated by Affymetrix software) in the following comparisons: for non-specific drug effects: CDC28+1-NM-PP1 vs. CDC28; for cdc28-as1 effects: cdc28-as1 vs. CDC28.

[15] = system: wild-type cells; test: as above; assay type: cell-based, Saccharomyces cerevisiae
Description: as §2, §3

[16] = G1 synchronized with α-factor, released into 500 nM
[17] = G1 synchronized, released into 5,000 nM

T4 sequence (P00546 whole entry F88G): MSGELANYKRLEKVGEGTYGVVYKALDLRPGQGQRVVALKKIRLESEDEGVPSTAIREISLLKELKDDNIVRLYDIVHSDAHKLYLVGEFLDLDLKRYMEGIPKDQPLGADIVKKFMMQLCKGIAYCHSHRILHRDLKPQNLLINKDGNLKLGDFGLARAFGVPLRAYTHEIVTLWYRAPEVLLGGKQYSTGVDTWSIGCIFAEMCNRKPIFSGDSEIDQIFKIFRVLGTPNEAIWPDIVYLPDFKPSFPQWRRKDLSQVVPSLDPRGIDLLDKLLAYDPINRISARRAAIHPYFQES
T4 sequence (P24869 whole entry, further chain): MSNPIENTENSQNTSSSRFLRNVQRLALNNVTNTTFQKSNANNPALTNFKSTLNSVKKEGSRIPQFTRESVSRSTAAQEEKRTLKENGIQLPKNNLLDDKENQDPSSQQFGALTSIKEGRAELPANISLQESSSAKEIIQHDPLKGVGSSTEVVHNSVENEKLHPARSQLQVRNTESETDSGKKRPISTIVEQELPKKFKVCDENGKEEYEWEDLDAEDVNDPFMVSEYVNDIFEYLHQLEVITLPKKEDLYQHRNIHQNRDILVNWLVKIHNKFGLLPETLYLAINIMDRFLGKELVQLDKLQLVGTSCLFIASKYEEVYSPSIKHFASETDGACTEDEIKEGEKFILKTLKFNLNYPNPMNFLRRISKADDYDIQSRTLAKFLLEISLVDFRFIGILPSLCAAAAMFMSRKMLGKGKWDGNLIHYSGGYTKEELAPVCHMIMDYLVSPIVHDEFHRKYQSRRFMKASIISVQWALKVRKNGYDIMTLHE
T3 sequence (P00546 whole entry F88G): as the sequence (P00546 whole entry F88G) above
T3 sequence (P24869 whole entry, further chain): as the sequence (P24869 whole entry, further chain) above

CC(C)(C)n1nc(Cc2cccc3ccccc23)c2c(N)ncnc21 [Compound 6h, 4-amino-1-(tert-butyl)-3-(1′-naphthylmethyl)pyrazolo[3,4-d]pyrimidine]
IC50 [1]: 4.2 nM | IC50 [2]: 28000 nM | concentration at which wild-type kinases are inhibited [3]: ≥ 1 µM | inhibition of engineered kinases (in words) [4]: the most potent inhibitor of every engineered kinase tested | IC50 ([4]; within a 3 fold range, read-out: IC50 for all of the glycine mutants): < 10 nM | IC50 [5]: 3.9 nM | growth of yeast which express Cdc28-as1 [6]: completely ablated | inhibitor concentration for complete growth arrest [6]: above 500 nM | IC50 ([6]; in vivo, read-out: inhibitor concentration at which growth is inhibited 50%): 50 to 100 nM | proliferation of wild-type cells [7]: unaffected by the inhibitor except at very high concentrations | growth of wild-type strains ([7]; same concentrations): had no effect on the growth of wild-type strains | decrease of Fus3-as1 mediated mating [8]: 85 fold | mating efficiency [9]: no decrease in mating efficiency | cfu/mL on YPD plates (non-selective cytotoxicity) [10]: No significant decrease in cfu/mL on YPD plates | IC50 [11]: ~3 nM | delay of accumulation of the mitotic cyclin Clb2 [12, 16]: 60 to 90 min | delay of initiation of budding and DNA synthesis [12, 16]: 30 to 60 min | terminal arrest phenotype ([12]; G1 synchronized, released into 500 nM): arrest with moderate Clb2 levels, highly hyperpolarized buds, and a G2M DNA content | arrest phenotype [12, 17]: arrested with a IC DNA content and initially failed to bud | time after which cells eventually budded [12, 17]: 180 to 240 min | cell cycle effect (G2/M DNA content, large hyperpolarized buds) ([12]; 50 nM): delay | cell cycle effect (G2/M DNA content, large hyperpolarized buds) ([12]; 500 nM): arrest | cell cycle effect ([12]; asynchronous cells, 5,000 nM): non-uniform arrest that included unbudded GI cells as well as large-budded G2/M cells | arrest phenotype [13]: arrested with a 1C DNA content and never budded, even after 6 hours | G2/M transcription ([14]; 500 nM, 120 minutes): causes a drop in G2/M transcription | down-regulated transcripts that are cell cycle-regulated ([14]; 500 nM, two hours): 60 transcripts | down-regulated transcripts with peak expression at G2/M ([14]; 500 nM, two hours): 32 transcripts | number of genes with […] or greater decreases ([14]; 500 nM, two hours): 66 genes | number of genes with […] or greater increases ([14]; 500 nM, two hours): 38 genes | down-regulation of the Cln-Cdc28 inhibitor Far 1 transcript ([14]; two-hour drug exposure): 20 fold | effects on wild-type cell physiology ([15]; 500 nM): has no significant effects on wild-type cell physiology | number of genes whose transcription changed greater than two-fold ([15]; 500 nM, 30 minutes): 6 genes | share of genes whose transcription changed greater than two-fold ([15]; 500 nM, 30 minutes): 0.1% | number of genes changed ([15]; 120 minutes): 3 genes
